Tests used:
HCC1806 s.c. xenografts = assay: HCC1806 s.c. breast cancer xenograft efficacy (tumor volume, relative tumor volume, tumor weight, TGI); assay type: in vivo, BALB/c nude mice; details: 30 mg/kg P.O. BID; for Tumor Growth Inhibition D3 / Tumor Growth Inhibition D7 / Tumor Growth Inhibition D10 / Tumor Growth Inhibition D14 / Tumor Growth Inhibition D17 / Tumor Growth Inhibition D21: vs control vehicle; for Tumor Growth Inhibition D3 / Tumor volume D3: day 3; for Tumor Growth Inhibition D7 / Tumor volume D7: day 7; for Tumor Growth Inhibition D10 / Tumor volume D10: day 10; for Tumor Growth Inhibition D14 / Tumor volume D14: day 14; for Tumor Growth Inhibition D17 / Tumor volume D17: day 17; for Tumor Growth Inhibition D21 / Tumor volume D21: day 21; for Tumor volume D0 / Tumor volume D3 / Tumor volume D7 / Tumor volume D10 / Tumor volume D14 / Tumor volume D17 / Tumor volume D21 / Tumor weight: group mean; for Tumor volume D0: day 0; for Tumor weight: end of the study (Day 21)
Method: The in vivo potency of anti-tumor activities of Comp. 4, Comp. 37, Comp. 5, Comp. 28, Comp. 163, and Comp. 164 have been evaluated on the growth of HCC1806 s.c. xenografts in BALB/c nude mice.
The testing compounds Comp. 4, Comp. 37, Comp. 5, Comp. 28, Comp. 163, and Comp. 164 were prepared according the synthetic routes set forth in the above Examples. The testing formulations for compounds Comp. 4, Comp. 37, Comp. 5, Comp. 28, Comp. 163, and Comp. 164 were prepared as liquid formulation in a liquid vehicle containing 0.1% Tween-80 (purchased form Sinopharm Chemical Reagent Co., Ltd, Lot No. 20190322), 0.5% methyl cellulose (purchased from SIGMA, Lot No. SLBR8963V) in water.
A total of 42+8 female BALB/c nude mice were ordered from Shanghai LC Laboratory Animal Co. Ltd. The animals were specific pathogen free and approximately 4-5 weeks old upon arrival at PharmaLegacy Laboratories.
HCC1806 cell cultures were maintained at 37° C. under 5% CO2 in RPMI-1640 medium supplemented with 10% FBS and were subsequently cultured within 10 passages before inoculated into the mice.
When the average tumor volume reached 80-120 mm^3, 42 tumor-bearing mice were randomized into 7 groups (6 mice per group) according to tumor volume. The grouping day was defined as Day 0. Treatment was applied immediately after grouping animals on the same day.
The body weight of the testing animals were measured twice a week after grouping. Tumor volumes by the length and width of the tumor were measured by electric calipers and the tumor volume (V) was calculated as follows: V=(length×width^2)/2. The individual relative tumor volume (RTV) was calculated as follows: RTV=Vt/V0, where Vt was the volume on each day, and V0 was the volume at the beginning of the treatment.
Tumors were collected at the end of the study (Day 21), the mice were sacrificed. Tumor was collected, weighed, photographed.
Results were expressed as mean±S.E.M. Comparisons between two groups were made by corresponding test, p<0.05 were considered to be significant.

in vitro [1] = details: mouse, microsomes, pH 7.4, t1/2 mouse
Method: (§1) Human liver microsomes (cat. No. 452161), mouse liver microsomes (cat. No. 452701), were purchased from Corning.
(§2) Samples were analyzed using LC-MS/MS using a SCIEX API 4000 mass spectrometer coupled with Agilent HPLC analytical system. After separation on a ZORBAX XDB-C18 column (5 μm, 50×2.1 mm, column No. 50-282) using an acetonitrile-water gradient system, peaks were analyzed by mass spectroscopy (MS) using ESI ionization in Q1 and Q3 scan mode.
(§3) The LC and MS are all controlled by Analyst software.
(§4) The liver microsomes were incubated with 1.0 μM of the testing compound at 37° C. The incubation mixture contained 100 mM PBS buffer (pH=7.4), 3 mM MgCl2 and 1 mM NADPH. The concentration of liver microsome in the incubation mixture was 0.5 mg/mL for testing compound, and 0.2 mg/mL for MDZ and the total volume is 0.2 mL. […] Aliquots were withdrawn at time points of 0 min, 5 min and 20 min for MDZ. The reactions were terminated by transferring the aliquots to a methanol solution containing the internal standard […] for analytical quantification. The quenched samples were analyzed by LC-MS/MS. The incubations were carried out in duplicates. The metabolic stability of the testing compounds by the liver microsomes of human and mice is expressed as elimination half-life (t1/2). The results are shown as the means of duplicate determinations±SD.

in vitro [2] = details: human, microsomes, pH 7.4, t1/2 human
Method: as §1, §2, §3, §4

[3] = test system: human breast squamous HCC1806 cell line; assay: CyQUANT Direct cell proliferation assay, HCC1806; assay type: cell-based; details: HCC1806, 168 h, 7 days
From the text: The human ovarian carcinoma OVCAR3 cell line (ATCC HTB-161™) or human breast squamous HCC1806 cell line (ATCC CRL 2335) were obtained from American Type Culture Collection (ATCC), and maintained in culture media according to the supplier's specification.
The CyQUANT® Direct Cell Proliferation Assay Kit (Invitrogen™, catalog No. G35012) was utilized to test the inhibitory activities of the CDK2 inhibitors described in this disclosure against OVCAR3 or HCC1806 tumor cells.
CyQUANT® Direct Cell Proliferation Assay: The spent medium from the purchased tumor cell culture plate was removed and the tumor cells were washed with PBS buffer twice. Trypsin (VWR catalog No. 0458-25G) was added to digest the tumor cells until tumor cells appeared round shaped and to dissociate adherent cells from the plate wall in which they are being cultured. Then RPMI-1640 media (HCC1806, Gibco™ catalog No, A10491-01) with 10% fetal bovine serum (FBS) (Hyclone™ catalog No. SV30160.03), or RPMI-1640 media (OVCAR-3, Gibco™ catalog No. 10370-021) with 20% FBS and 0.01 mg/mL insulin was added to stop the trypsin digestion reaction. The tumor cells were lightly agitated with a liquid transfer pipette to cause tumor cells suspended in the culture media. The cells were counted. The complete medium was used to prepare tumor cell suspension.
OVCAR3 or HCC1806 cells were seeded at 40 μL/well in 384-well plates in growth media containing FBS and cultured 24 hours in the incubator at 37° C., 5% CO2. […] Compound solutions were added by Agilent Bravo liquid handler. […] The control wells contained the growth medium having 0.1% DMSO. Cells were incubated at 37° C., 5% CO2 for 7 days.
CYQUANT Direct Cell Proliferation Assay (Molecular Probes, Eugene, Oreg.) was then performed following manufacturer's instructions to prepare the detection reagents. 50 μL of detection reagent was aliquot and added to each well and the cells were incubated at 37° C. for 1 hr.
The cell culture plates were placed on TECAN M1000 microplate reader to detect the fluorescence intensity at 508 nm excitation and 527 nm emission wavelengths. Graphpad Prism 6.0 software was used for data processing, preparing cell growth curve, calculating percentage inhibition on cell growth. IC50 values were calculated by concentration-response curve fitting utilizing a four-parameter analytical method using GraphPad Prism software.

## [2H]C(F)(F)c1cc2cnc(NC3CCN(S(C)(=O)=O)CC3)nc2n([C@@H]2CCC[C@@]2(C)O)c1=O [Comp. 28, (−)-6-(difluoromethyl-d)-8-((1R,2R)-2-hydroxy-2-methylcyclopentyl)-2-((1-(methylsulfonyl)piperidin-4-yl)amino)pyrido[2,3-d]pyrimidin-7(8H)-one]
HCC1806 s.c. xenografts
  Tumor Growth Inhibition D3: 15.44%
  Tumor Growth Inhibition D7: 11.52%
  Tumor Growth Inhibition D10: 15.19%
  Tumor Growth Inhibition D14: 12.60%
  Tumor Growth Inhibition D17: 26.69%
  Tumor Growth Inhibition D21: 34.01%
  Tumor volume D0: 111.13 mm^3
  Tumor volume D3: 267.25 mm^3
  Tumor volume D7: 564.40 mm^3
  Tumor volume D10: 876.82 mm^3
  Tumor volume D14: 1288.11 mm^3
  Tumor volume D17: 1438.12 mm^3
  Tumor volume D21: 1549.07 mm^3
  Tumor weight: 2.84 g
In vitro [1]
  half-life at 1 μM: 3.03 h
In vitro [2]
  half-life at 1 μM: 14.4 h
[3]
  IC50: 75 nM

## C[C@@]1(O)CCC[C@H]1n1c(=O)c(C(F)F)cc2cnc(NC3CCN(S(C)(=O)=O)CC3)nc21 [Comp. 5, (−)-6-(difluoromethyl)-8-((1R,2R)-2-hydroxy-2-methylcyclopentyl)-2-((1-(methylsulfonyl)piperidin-4-yl)amino)pyrido[2,3-d]pyrimidin-7(8H)-one, reference compound]
HCC1806 s.c. xenografts
  tumor volume compared with G1 vehicle on each day: significant smaller tumor volume from day 7 to day 21
  tumor weight at the end of the study, in words: lighter tumor but no statistic significance
  Tumor Growth Inhibition D3: 37.46%
  Tumor Growth Inhibition D7: 42.30%
  Tumor Growth Inhibition D10: 39.66%
  Tumor Growth Inhibition D14: 42.80%
  Tumor Growth Inhibition D17: 43.13%
  Tumor Growth Inhibition D21: 44.1%
  Tumor volume D0: 109.77 mm^3
  Tumor volume D3: 225.24 mm^3
  Tumor volume D7: 405.37 mm^3
  Tumor volume D10: 654.51 mm^3
  Tumor volume D14: 880.11 mm^3
  Tumor volume D17: 1139.14 mm^3
  Tumor volume D21: 1327.79 mm^3
  Tumor weight: 2.22 g
In vitro [1]
  half-life at 1 μM: 0.367 h
In vitro [2]
  half-life at 1 μM: 33.3 h
[3]
  IC50: 52.1 nM

## Cc1cc2cnc(NC3CCN(S(C)(=O)=O)CC3)nc2n([C@@H]2CCC[C@@]2(C)O)c1=O [Comp. 4, (−)-8-(2-hydroxy-2-methylcyclopentyl)-6-methyl-2-((1-(methylsulfonyl)piperidin-4-yl)amino)pyrido[2,3-d]pyrimidin-7(8H)-one, reference compound]
HCC1806 s.c. xenografts
  Tumor Growth Inhibition D3: 30.25%
  Tumor Growth Inhibition D7: 23.11%
  Tumor Growth Inhibition D10: −1.66%
  Tumor Growth Inhibition D14: 6.35%
  Tumor Growth Inhibition D17: 9.13%
  Tumor Growth Inhibition D21: 6.55%
  Tumor volume D0: 112.95 mm^3
  Tumor volume D3: 241.73 mm^3
  Tumor volume D7: 506.86 mm^3
  Tumor volume D10: 1030.80 mm^3
  Tumor volume D14: 1374.19 mm^3
  Tumor volume D17: 1757.63 mm^3
  Tumor volume D21: 2149.25 mm^3
  Tumor weight: 3.63 g
In vitro [1]
  half-life at 1 μM: 0.275 h
In vitro [2]
  half-life at 1 μM: 7.7 h
[3]
  IC50: 41.5 nM

## [2H]C([2H])([2H])c1cc2cnc(NC3CCN(S(C)(=O)=O)CC3)nc2n([C@@H]2CCC[C@@]2(C)O)c1=O [Comp. 37, (−)-8-((1R,2R)-2-hydroxy-2-methylcyclopentyl)-6-(methyl-d3)-2-((1-(methylsulfonyl)piperidin-4-yl)amino)pyrido[2,3-d]pyrimidin-7(8H)-one]
HCC1806 s.c. xenografts
  tumor volume compared with G1 vehicle on each day: significant smaller tumor volume from day 3 to day 21
  tumor weight at the end of the study, in words: lighter tumor but no statistic significance
  Tumor Growth Inhibition D3: 42.52%
  Tumor Growth Inhibition D7: 49.20%
  Tumor Growth Inhibition D10: 46.10%
  Tumor Growth Inhibition D14: 44.43%
  Tumor Growth Inhibition D17: 48.73%
  Tumor Growth Inhibition D21: 46.8%
  Tumor volume D0: 109.89 mm^3
  Tumor volume D3: 216.01 mm^3
  Tumor volume D7: 370.15 mm^3
  Tumor volume D10: 596.52 mm^3
  Tumor volume D14: 858.29 mm^3
  Tumor volume D17: 1037.86 mm^3
  Tumor volume D21: 1269.08 mm^3
  Tumor weight: 2.10 g
In vitro [1]
  half-life at 1 μM: 1.2 h
In vitro [2]
  half-life at 1 μM: 28.9 h
[3]
  IC50: 35 nM
